Measured values as given in patent US20240067617A1 (Albireo AB, priority 2022, published 2024).
Values belong to the compound of their own block, whether it stands above or below them.

Tests used:
hIBAT = molecular target: T1, hIBAT (Homo sapiens, UniProt Q12908); experiment: IBAT (h/m) assay: 3H-taurocholic acid uptake in human IBAT-overexpressing cells; assay type: cell-based; details: 0.25 μM 3H-taurocholic acid + 5 μM cold taurocholic acid, 20 minutes at 37° C., highest test concentration 10 μM
T1 construct: expressed in transfected cells; kept under Puromycin selection
T1 sequence (Q12908 1-348): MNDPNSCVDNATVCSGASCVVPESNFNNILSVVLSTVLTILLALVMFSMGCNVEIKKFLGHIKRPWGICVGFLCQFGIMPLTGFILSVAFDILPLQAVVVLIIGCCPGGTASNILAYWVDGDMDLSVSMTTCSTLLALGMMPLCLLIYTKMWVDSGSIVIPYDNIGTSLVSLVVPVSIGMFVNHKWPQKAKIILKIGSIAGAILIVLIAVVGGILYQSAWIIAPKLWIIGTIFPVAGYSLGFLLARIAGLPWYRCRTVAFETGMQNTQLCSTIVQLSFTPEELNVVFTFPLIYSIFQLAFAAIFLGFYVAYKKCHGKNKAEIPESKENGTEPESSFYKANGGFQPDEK
Outline: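 Human or mouse IBAT-overexpressing cells cultured 48 h, then exposed for 20 min at 37 °C to compounds (top 10 μM, 3-fold, 10 points; 0.2% DMSO) with 0.25 μM 3H-taurocholic acid plus 5 μM cold taurocholic acid. Uptake stopped on ice, cells washed with cold 1 mM taurocholic acid, radioactivity counted by scintillation.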

hLBAT = molecular target: T2, hLBAT (Homo sapiens, UniProt Q14973); experiment: LBAT (h/m) assay: 3H-taurocholic acid uptake in human LBAT-overexpressing cells; assay type: cell-based; details: 0.3 μM 3H-taurocholic acid + 7.5 μM cold taurocholic acid, 20 minutes at 37° C.
T2 construct: expressed in transfected cells; kept under Geneticin selection
T2 sequence (Q14973 1-349): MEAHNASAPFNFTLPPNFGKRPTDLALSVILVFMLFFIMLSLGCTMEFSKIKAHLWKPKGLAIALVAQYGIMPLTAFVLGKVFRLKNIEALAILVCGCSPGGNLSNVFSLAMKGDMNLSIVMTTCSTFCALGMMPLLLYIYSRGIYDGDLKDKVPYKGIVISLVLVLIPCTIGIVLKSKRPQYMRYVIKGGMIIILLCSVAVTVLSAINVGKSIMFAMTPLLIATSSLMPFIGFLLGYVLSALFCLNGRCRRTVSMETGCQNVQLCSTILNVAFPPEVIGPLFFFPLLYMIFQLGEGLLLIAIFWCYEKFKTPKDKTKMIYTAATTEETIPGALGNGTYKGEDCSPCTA
Outline: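 Human or mouse LBAT-overexpressing cells given 10-point inhibitor series with 0.3 μM 3H-taurocholic acid plus cold taurocholic acid (7.5 μM human, 25 μM mouse), 0.2% DMSO, for 20 min at 37° C. Stopped on ice, washed with 1 mM unlabelled taurocholic acid; uptake measured by scintillation counting.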

Structure (SMILES): CCCC[C@@H]1CN(c2ccccc2)c2cc(N(C)C)c(CSCC(=O)O)cc2S(=O)(=O)N1 [Example 49, (R)-2-(((3-butyl-7-(dimethylamino)-1,1-dioxido-5-phenyl-2,3,4,5-tetrahydro-1,2,5-benzothiadiazepin-8-yl)methyl)thio)acetic acid]
IC50 (hIBAT): 2320 nM
IC50 (hLBAT): 248 nM

Structure (SMILES): CCCCC1(C)CN(c2ccccc2)c2cc(N(C)C)c(CSCC(=O)O)cc2S(=O)(=O)N1 (stereo not drawn) [Example 52, 2-(((3-Butyl-7-(dimethylamino)-3-methyl-1,1-dioxido-5-phenyl-2,3,4,5-tetrahydro-1,2,5-benzothiadiazepin-8-yl)methyl)thio)acetic acid]
IC50 (hIBAT): 7.4 nM
IC50 (hLBAT): > 1000 nM

Structure (SMILES): CCCCC1(C)CN(c2ccccc2)c2cc(OC)c(CSCC(=O)O)cc2S(=O)(=O)N1 (stereo not drawn) [Example 53, 2-(((3-butyl-7-methoxy-3-methyl-1,1-dioxido-5-phenyl-2,3,4,5-tetrahydro-1,2,5-benzothiadiazepin-8-yl)methyl)thio)acetic acid]
IC50 (hIBAT): 14 nM
IC50 (hLBAT): > 1000 nM

Structure (SMILES): CCCCC1(C)CN(c2ccccc2)c2cc(SC)c(CSCC(=O)O)cc2S(=O)(=O)N1 (stereo not drawn) [Example 54, 2-(((3-Butyl-3-methyl-7-(methylthio)-1,1-dioxido-5-phenyl-2,3,4,5-tetrahydro-1,2,5-benzothiadiazepin-8-yl)methyl)thio)acetic acid]
IC50 (hIBAT): 0.1 nM
IC50 (hLBAT): > 1000 nM

Now from value to compound:

IC50 (hIBAT): 558 nM
IC50 (hLBAT): 50 nM
Structure (SMILES): CCCC[C@@H]1CN(c2ccccc2)c2cc(SC)c(CSCC(=O)O)cc2S(=O)(=O)N1 [Example 50, (R)-2-(((3-butyl-7-(methylthio)-1,1-dioxido-5-phenyl-2,3,4,5-tetrahydro-1,2,5-benzothiadiazepin-8-yl)methyl)thio)acetic acid]

IC50 (hIBAT): 2610 nM
IC50 (hLBAT): 142 nM
Structure (SMILES): CCCC[C@@H]1CN(c2ccccc2)c2cc(OC)c(CSCC(=O)O)cc2S(=O)(=O)N1 [Example 51, (R)-2-(((3-butyl-7-methoxy-1,1-dioxido-5-phenyl-2,3,4,5-tetrahydro-1,2,5-benzothiadiazepin-8-yl)methyl)thio)acetic acid]
